Data: US8138148B2, “GDNF derived peptides” (Copenhagen University, priority 2005, dated 2012)

Tests used:
[1] = tested on: hippocampal neurons; assay: Neurite outgrowth in co-cultures with pharmacological inhibitors (PP2, SU5402); format: cell-based, rat; details: neurons on control or NCAM-expressing fibroblasts; for effect of inhibitor on GDNF-induced neurite outgrowth: 10 ng/ml GDNF, PP2 0.2-25 μM, SU5402 1-25 μM; for effect of inhibitor on G2-induced neurite outgrowth: 3 μg/ml G2, PP2 0.2-100 μM, SU5402 1-100 μM, 24 hours
Procedure: (§1) In monocultures, neurons are grown directly on plastic and the only neuritogenic stimulus is the one presented by the added substance. In co-cultures, neurons are grown on top of a confluent monolayer of fibroblasts expressing NCAM-140 (LBN110) or NCAM-negative control fibroblasts (LVN212). NCAM on the neurons interact with NCAM on LBN110 cells thereby stimulating neurite outgrowth from the neurons. This system thus permits the study of NCAM-NCAM interactions and interactions between NCAM and other molecules.
(§2) For cocultures, L-cells were seeded in 8-well LabTek® Permanox Chamber slides at a density of 100.000 cells/well, except for transfection experiments where cells were seeded in 4-well LabTek® Permanox Chamber slides at a density of 200.000 cells/well. L-cells were grown for 24 hours in DMEM supplemented with 10% (v/v) FCS, 1% (v/v) glutamax, 100 U/ml penicillin, 100 μg/ml streptomycin, 2.5 μg/ml fungizone, and 567 μg/ml neomycin (G418), followed by washing twice in neurobasal medium with supplements before primary hippocampal neurons were seeded at a density of 7.000 cells/well in 8-well slides or 20.000 cells/well in 4-well slides.
To evaluate the involvement different intracellular signal transduction pathways pharmacological inhibitors, in particular the FGFR inhibitor SU5402 and Fyn-kinase inhibitor PP2, were diluted to the appropriate concentrations and added to the neurons immediately after seeding. After 10 minutes GDNF, GDNFp1 or medium (controls) was added and cells were incubated for 24 hours.
(§3) Neurite outgrowth experiments were terminated after the stated time by fixating the cells. To visualize neurons and their neurites, immunostaining of GAP-43 was performed. This staining is specific for neurons. Transfected cells and their neurites should be visible without immunostaining due to the fluorescence emitted by GFP. […] GFP is a cytoplasmic protein, and since thin neurites only contain a small volume of cytoplasm, GFP is only found in small amounts in most neurites. Therefore, a double-staining protocol, where cells were immunostained against GFP and GAP-43, was adopted. This protocol allowed the identification of transfected cells on the basis of GFP-staining in combination with visualization of neurites based on GAP-43-staining.
Without prior removal of the medium 300 μl/well (8-well slides) or 500 μl/well (4-well slides) of a PBS solution containing 0.4 mM CaCl2, 0.05 M sucrose and 8% (v/v) formaldehyde was added to the cultures for 20 minutes. Cells were then washed 10 minutes in PBS followed by washing in PBS with 1% (w/v) BSA for 20 minutes, after which cells were incubated with primary antibodies overnight at 4° C. […]

[2] = tested on: GFRα receptors; assay: Surface plasmon resonance (SPR) binding analysis, GFRα receptors; details: immobilized receptor protein, 25° C., PBS pH 7.4
Procedure: Analysis of binding was performed employing a BIAcoreX instrument (Biosensor AB, Uppsala, Sweden) at 25° C. using 10 mM pH 7.4 sodium phosphate containing 150 mM NaCl as running buffer (phosphate-buffered saline, PBS). The flow-rate was 5 μl/min. Data were analysed by non-linear curve-fitting using the manufacturer's software. The receptor proteins, e.g. NCAM Ig1-Ig2 and GFR proteins, were immobilized on a sensor chip CM5 using an amine coupling kit (Biosensor AB) as follows: the chip was activated by 20 μl activation solution; the protein was immobilized using 12 μl 20 μg/ml protein in 10 mM sodium phosphate buffer pH 6.0; the chip was blocked by 35 μl blocking solution. Various peptides at the indicated concentrations were injected into the sensor chip. The curve corresponding to the difference between binding to receptor and a blank chip was used for analysis.

[3] = tested on: cerebellar granule neurons (CGN); assay: Survival assay, cerebellar granule neurons (apoptosis induced by low KCl); format: cell-based, Wistar rat; details: 5 mM KCl, two days after induction of apoptosis
Procedure: Cerebellar granule neurons (CGN) were prepared from postnatal day seven Wistar rats largely as previously described by Schousboe et al. (1989). Cerebellar tissue was dissected in modified Krebs-Ringer solution kept on ice, and treated as described for the hippocampal neurons above. All cell cultures were incubated at 37° C. in a humidified atmosphere containing 5% CO2. All animals were handled in accordance with the national guidelines for animal welfare.
Primary cultures of CGN were plated at a density of 100,000 cells/cm^2 on poly-L-lysine coated 8-well permanox slides in Neurobasal-A medium (Gibco, BRL) supplemented with 2% (v/v) B27, 0.5% (v/v) glutamax, 100 U/ml penicillin, 100 μg/ml streptomycin and KCl, making the final concentration of KCl in the medium 40 mM. 24 hours after plating, cytosine-β-D-arabinofuranoside (Ara-C; Sigma-Aldrich) was added to a final concentration of 10 μM to avoid proliferation of glial cells, after which the neurons were allowed to differentiate for further six days at 37° C. Apoptotic cell death was induced by washing twice and changing the medium to Basal Medium Eagle (BME; Gibco BRL) supplemented with 1% (v/v) glutamine, 100 U/ml penicillin and 100 μg/ml streptomycin, 3.5 g D-glucose/l and 1% (v/v) sodium pyruvate (Gibco BRL) together with various concentrations of peptide. Thereby the concentration of potassium in the cultures was reduced to 5 mM KCl (D'Mello et al., 1993). Two days after induction of apoptosis, the cells were fixed with 4% (v/v) formaldehyde and stained with Hoechst 33258 for 25 minutes as described by Kruman et al. (1997). Images of 1000-1500 neurons were randomly recorded for each group in each experiment using computer assisted fluorescence microscopy as described for the hippocampal neurite outgrowth assay. Nuclei from dead and live neurons were counted using the software package Prima developed at the Protein Laboratory, and the fraction of live neurons relative to the total number of neurons was estimated.

[4] = tested on: primary hippocampal neurons; assay: Neurite outgrowth assay, monocultures of primary hippocampal neurons; format: cell-based, rat; details: monoculture, stimulated 24 hours; GDNF 1-100 ng/ml, peptides 0.1-27 μg/ml; versus medium alone
Procedure: (§4) Two different versions of the neurite outgrowth assay were used in this study, monocultures and co-cultures.
as §1
(§5) For all experiments cells were grown in neurobasal medium with supplements as described above in a final volume of 300 μl/well in 8-well LabTek® Permanox Chamber slides or 500 μl/well in 4-well LabTek® Permanox Chamber slides.
For monocultures, primary hippocampal neurons were seeded in 8-well LabTek® Permanox Chamber slides at a density of 10,000 cells/well.
(§6) To evaluate the effect peptides on neurite outgrowth, GDNF and the peptides, G1, G2, G3, A1, A2, A3, N1, N2 and N3 were diluted to the appropriate concentrations and added to the neurons approximately 10 minutes after seeding. Medium alone was added to controls, and cells were incubated for 24 hours.
as §3, with “GAP-43-staining. […]” for “GAP-43-staining.”

[5] = tested on: hippocampal neurons; assay: Neurite outgrowth assay, co-cultures of hippocampal neurons on control fibroblasts or NCAM-expressing fibroblasts; format: cell-based, rat; details: 24 hours
Procedure: as §4, §1, §5, §2, §6, §3
Without prior removal of the medium 300 μl/well (8-well slides) or 500 μl/well (4-well slides) of a PBS solution containing 0.4 mM CaCl2, 0.05 M sucrose and 8% (v/v) formaldehyde was added to the cultures for 20 minutes. Cells were then washed 10 minutes in PBS followed by washing in PBS with 1% (w/v) BSA for 20 minutes, after which cells were incubated with primary antibodies overnight at 4° C.
Rabbit anti-rat GAP-43 antibodies were diluted 1:1000 for staining of untransfected cells and 1:2000 for staining of transfected cells. Mouse anti-GFP antibodies were diluted 1:1000. Antibodies were diluted in a PBS solution containing 7% (v/v) FCS to block unspecific binding, 50 mM glycine to block formaldehyde used for fixation, 0.2% (v/v) saponin to permeabilize cells, and 0.02% (v/v) NaN3 to preserve antibodies for later use.
The next day cells were washed 10 minutes in PBS followed by washing in PBS with 1% (w/v) BSA for 20 minutes. Cells were then incubated with secondary antibodies diluted in PBS with 1% (w/v) BSA for one hour at room temperature. Goat anti-rabbit IgG antibodies conjugated to Alexa 488 were diluted 1:1000 for untransfected cells and 1:2000 for transfected cells. Goat anti-mouse IgG antibodies conjugated to Alexa 546 were diluted 1:1000. Finally cells were washed 3×7 minutes in PBS and mounted with fluorescent mounting medium. […]

Compound	binding to the GFRα receptors (SPR) [2]	survival of cerebellar granule neurons (CGN) [3]	also measured
CC(C)(C)n1nc(-c2ccc(Cl)cc2)c2c(N)ncnc21 [PP2]	–	–	effect of inhibitor on GDNF-induced neurite outgrowth [1]: decreases GDNF-induced neurite outgrowth; effect of inhibitor on G2-induced neurite outgrowth [1]: decreases G2-induced neurite outgrowth
Cc1c[nH]c(/C=C2\C(=O)Nc3ccccc32)c1CCC(=O)O [SU5402]	–	–	effect of inhibitor on GDNF-induced neurite outgrowth [1]: decreases GDNF-induced neurite outgrowth; effect of inhibitor on G2-induced neurite outgrowth [1]: decreases G2-induced neurite outgrowth
ARVYDLGLRRLRQRR (listed as Homo sapiens) [N2, neurturin fragment]	binding	–	–
DEVSFLDAHSRY (listed as Homo sapiens) [NeuGi, neurturin-derived peptide]	binding	increases the survival of CGNs	–
DLSFLDDNLVY (listed as Homo sapiens) [G3, GDNF fragment]	–	–	neurite outgrowth, overall effect of treatment (one-way ANOVA) [4]: do not induce neurite outgrowth; neurite outgrowth, overall effect of treatment, neurons grown on NCAM-expressing fibroblasts ([5]; co-culture on NCAM-expressing fibroblasts, GDNF 1-100 ng/ml, peptides 0.1-81 μg/ml): overall statistical significant effect; neurite outgrowth, overall effect of treatment, neurons grown on control fibroblasts ([5]; co-culture on control fibroblasts, GDNF 1-100 ng/ml, peptides 0.1-81 μg/ml): no overall significant effect; difference between neurite outgrowth on control fibroblasts and on NCAM-expressing fibroblasts across concentrations (one-way ANOVA) ([5]; difference per concentration, expressed as percentage of control): mean differences are not all the same; direction of the effect on NCAM-induced neurite outgrowth ([5]; neurons on NCAM-expressing fibroblasts, 0.3-81 μg/ml): inhibitory at higher concentrations
EAVSFMDVNSTWR (listed as Homo sapiens) [ArtGi, artemin-derived peptide]	binding	increases the survival of CGNs	–
RSPHDLSLASLLGAG (listed as Homo sapiens) [A2, artemin fragment]	binding	increases the survival of CGNs	–
VPVRALGLGHRSDEL (listed as Homo sapiens) [A1, artemin fragment]	–	increases the survival of CGNs	–
VRVSELGLGYASDET (listed as Homo sapiens) [N1, neurturin fragment]	binding	increases the survival of CGNs	–
